Source: ChEMBL document CHEMBL1629418, “Spiroimidazolidinone NPC1L1 inhibitors. Part 2: structure-activity studies and in vivo efficacy” (Bioorg Med Chem Lett, 2010)

Biological target: T1, NPC1-like intracellular cholesterol transporter 1 (Homo sapiens, UniProt Q9UHC9)
T1 sequence (Q9UHC9 whole entry): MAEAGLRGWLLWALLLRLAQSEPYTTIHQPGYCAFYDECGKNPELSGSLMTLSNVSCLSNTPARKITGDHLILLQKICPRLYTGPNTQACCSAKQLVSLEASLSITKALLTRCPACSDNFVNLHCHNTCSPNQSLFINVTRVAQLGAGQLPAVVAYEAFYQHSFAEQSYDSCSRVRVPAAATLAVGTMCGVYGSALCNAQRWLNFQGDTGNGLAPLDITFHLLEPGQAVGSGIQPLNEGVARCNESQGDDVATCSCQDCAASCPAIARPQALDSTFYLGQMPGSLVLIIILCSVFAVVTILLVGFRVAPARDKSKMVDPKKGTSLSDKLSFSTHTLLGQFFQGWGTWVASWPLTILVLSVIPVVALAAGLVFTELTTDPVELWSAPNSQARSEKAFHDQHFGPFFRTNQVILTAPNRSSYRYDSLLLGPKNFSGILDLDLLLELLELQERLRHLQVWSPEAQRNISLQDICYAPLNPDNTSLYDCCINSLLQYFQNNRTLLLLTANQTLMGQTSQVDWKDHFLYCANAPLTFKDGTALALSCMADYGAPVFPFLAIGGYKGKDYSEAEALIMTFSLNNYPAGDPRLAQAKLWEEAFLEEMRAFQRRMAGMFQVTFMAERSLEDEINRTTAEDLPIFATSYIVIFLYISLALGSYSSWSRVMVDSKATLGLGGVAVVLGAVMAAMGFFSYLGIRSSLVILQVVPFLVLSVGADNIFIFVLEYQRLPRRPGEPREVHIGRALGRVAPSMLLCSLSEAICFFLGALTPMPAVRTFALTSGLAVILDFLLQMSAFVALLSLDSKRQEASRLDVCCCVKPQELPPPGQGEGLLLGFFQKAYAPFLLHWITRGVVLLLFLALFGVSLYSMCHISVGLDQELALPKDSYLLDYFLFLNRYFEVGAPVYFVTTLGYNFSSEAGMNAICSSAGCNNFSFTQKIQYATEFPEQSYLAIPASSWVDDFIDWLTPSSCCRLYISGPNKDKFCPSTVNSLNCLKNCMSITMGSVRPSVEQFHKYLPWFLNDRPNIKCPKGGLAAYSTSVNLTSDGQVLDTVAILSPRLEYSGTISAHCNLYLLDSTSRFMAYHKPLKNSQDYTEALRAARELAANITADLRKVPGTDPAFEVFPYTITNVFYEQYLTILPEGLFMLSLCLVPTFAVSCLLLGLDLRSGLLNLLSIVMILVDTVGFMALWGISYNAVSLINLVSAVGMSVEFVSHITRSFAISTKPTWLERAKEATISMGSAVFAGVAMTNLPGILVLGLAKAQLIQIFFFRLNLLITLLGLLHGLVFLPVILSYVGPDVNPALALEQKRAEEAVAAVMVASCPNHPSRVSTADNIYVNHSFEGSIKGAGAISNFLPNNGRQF
Test: Displacement of [35S](2S,3S,4S,5R,6S)-6-(4-((2S,3R)-3-((S)-3-(4-fluorophenyl)-3-hydroxypropyl)-1-(4-(3-(methylsulfonamido)prop-1-ynyl)phenyl)-4-oxoazetidin-2-yl)phenoxy)-3,4,5-trihydroxytetrahydro-2H-pyran-2-carboxylic acid from human NCP1L1 expressed in HEK 293
Type: cell-based, HEK293

SMILES	IC50 [µM]
CC(C)(C)c1ccc(C(=O)N2CCC3(CC2)C(=O)N(CC(=O)N2CCCC(CO)C2)CN3c2ccccc2)cc1 (centres undefined)	8.2
CC(C)(C)OC(=O)NCCNC(=O)CN1CN(c2ccccc2)C2(CCN(C(=O)c3ccc(C(C)(C)C)cc3)CC2)C1=O	9.4
CCc1nn(CC)c(C2CCN(C(=O)CN3CN(c4ccccc4)C4(CCN(C(=O)c5ccc(C(C)(C)C)cc5)CC4)C3=O)CC2)c1CC	4.6
COC(=O)CNC(=O)CN1CN(c2ccccc2)C2(CCN(C(=O)c3ccc(C(C)(C)C)cc3)CC2)C1=O	16.6
CCC1CCCN(C(=O)CN2CN(c3ccccc3)C3(CCN(C(=O)c4ccc(C(C)(C)C)cc4)CC3)C2=O)C1 (centres undefined)	3.9
COC(=O)CNC(=O)CN1CN(c2ccccc2)C2(CCN(C(=O)c3ccc(C4CCCCC4)cc3)CC2)C1=O	3.7
O=C(CN1CN(c2ccccc2)C2(CCN(C(=O)c3ccc(C4CCCCC4)cc3)CC2)C1=O)N1CCC(CO)CC1	1.1
CC(C)(C)c1ccc(C(=O)N2CCC3(CC2)C(=O)N(CC(=O)NCCN)CN3c2ccccc2)cc1	59
CC(C)(C)c1ccc(C(=O)N2CCC3(CC2)C(=O)N(CC(=O)N2CCNCC2)CN3c2ccccc2)cc1	22
CC(C)(C)OC(=O)NCCCNC(=O)CN1CN(c2ccccc2)C2(CCN(C(=O)c3ccc(C(C)(C)C)cc3)CC2)C1=O	3.2
CC(C)(C)OC(=O)NC1CCN(C(=O)CN2CN(c3ccccc3)C3(CCN(C(=O)c4ccc(C(C)(C)C)cc4)CC3)C2=O)CC1	8.3
CCOC(=O)C1CCCN(C(=O)CN2CN(c3ccccc3)C3(CCN(C(=O)c4ccc(C(C)(C)C)cc4)CC3)C2=O)C1 (centres undefined)	8.2
COC(=O)CCNC(=O)CN1CN(c2ccccc2)C2(CCN(C(=O)c3ccc(C4CCCCC4)cc3)CC2)C1=O	4.5
CC(C)(C)c1ccc(C(=O)N2CCC3(CC2)C(=O)N(CC(=O)NCCO)CN3c2ccccc2)cc1	19.2
COC(=O)CCCNC(=O)CN1CN(c2ccccc2)C2(CCN(C(=O)c3ccc(C4CCCCC4)cc3)CC2)C1=O	4.5
CC(C)(C)OC(=O)NCC1CCN(C(=O)CN2CN(c3ccccc3)C3(CCN(C(=O)c4ccc(C(C)(C)C)cc4)CC3)C2=O)CC1	4.2
CC1CCCN(C(=O)CN2CN(c3ccccc3)C3(CCN(C(=O)c4ccc(C5CCCCC5)cc4)CC3)C2=O)C1 (centres undefined)	3.6
CC(C)(C)OC(=O)NCCCCNC(=O)CN1CN(c2ccccc2)C2(CCN(C(=O)c3ccc(C4CCCCC4)cc3)CC2)C1=O	5.5
CC(C)(C)c1ccc(C(=O)N2CCC3(CC2)C(=O)N(CC(=O)N2CCC(CCO)CC2)CN3c2ccccc2)cc1	2.6
CC(C)(C)c1ccc(C(=O)N2CCC3(CC2)C(=O)N(CC(=O)N2CCN(S(=O)(=O)c4ccccc4)CC2)CN3c2ccccc2)cc1	15
CC(C)(C)OC(=O)NCCCCCNC(=O)CN1CN(c2ccccc2)C2(CCN(C(=O)c3ccc(C(C)(C)C)cc3)CC2)C1=O	3.1
CCN(CC)C(=O)C1CCCN(C(=O)CN2CN(c3ccccc3)C3(CCN(C(=O)c4ccc(C(C)(C)C)cc4)CC3)C2=O)C1 (centres undefined)	8.7
CC(C)(C)c1ccc(C(=O)N2CCC3(CC2)C(=O)N(CC(=O)NCCCN)CN3c2ccccc2)cc1	49
CC(C)(C)c1ccc(C(=O)N2CCC3(CC2)C(=O)N(CC(=O)N2CCCCC2CO)CN3c2ccccc2)cc1 (centres undefined)	11.8
CC(C)(C)OC(=O)NC1CCN(C(=O)CN2CN(c3ccccc3)C3(CCN(C(=O)c4ccc(C5CCCCC5)cc4)CC3)C2=O)CC1	4.8
CC(C)(C)c1ccc(C(=O)N2CCC3(CC2)C(=O)N(CC(=O)NCCCO)CN3c2ccccc2)cc1	23.6
O=C(CN1CN(c2ccccc2)C2(CCN(C(=O)c3ccc(C4CCCCC4)cc3)CC2)C1=O)N1CCNCC1	6.5

SMILES	IC50 [µM]
CC(C)(C)c1ccc(C(=O)N2CCC3(CC2)C(=O)N(CC(=O)N2CCC(O)CC2)CN3c2ccccc2)cc1	4.7
CCOC(=O)C1CCCN(C(=O)CN2CN(c3ccccc3)C3(CCN(C(=O)c4ccc(C5CCCCC5)cc4)CC3)C2=O)C1 (centres undefined)	4.2
CC(C)(C)c1ccc(C(=O)N2CCC3(CC2)C(=O)N(CC(=O)NCCCCCO)CN3c2ccccc2)cc1	3.8
CCc1c(C)c(C2CCN(C(=O)CN3CN(c4ccccc4)C4(CCN(C(=O)c5ccc(C(C)(C)C)cc5)CC4)C3=O)CC2)nn1CC	5.4
CC(C)(C)OC(=O)NCC1CCCN(C(=O)CN2CN(c3ccccc3)C3(CCN(C(=O)c4ccc(C5CCCCC5)cc4)CC3)C2=O)C1 (centres undefined)	3.8
CCOC(=O)C1CCN(C(=O)CN2CN(c3ccccc3)C3(CCN(C(=O)c4ccc(C5CCCCC5)cc4)CC3)C2=O)CC1	0.9
CC(C)(C)c1ccc(C(=O)N2CCC3(CC2)C(=O)N(CC(=O)NCCCCN)CN3c2ccccc2)cc1	14
CS(=O)(=O)NCCNC(=O)CN1CN(c2ccccc2)C2(CCN(C(=O)c3ccc(C4CCCCC4)cc3)CC2)C1=O	7
CCN(CC)C(=O)C1CCCN(C(=O)CN2CN(c3ccccc3)C3(CCN(C(=O)c4ccc(C5CCCCC5)cc4)CC3)C2=O)C1 (centres undefined)	3.3
O=C(CN1CN(c2ccccc2)C2(CCN(C(=O)c3ccc(C4CCCCC4)cc3)CC2)C1=O)N1CCCCC1	1.1
CC(C)(C)OC(=O)NC1CCCN(C(=O)CN2CN(c3ccccc3)C3(CCN(C(=O)c4ccc(C(C)(C)C)cc4)CC3)C2=O)C1 (centres undefined)	4.2
CC(C)(C)c1ccc(C(=O)N2CCC3(CC2)C(=O)N(CC(=O)N2CCCC(O)C2)CN3c2ccccc2)cc1 (centres undefined)	12.2
CC(C)(C)c1ccc(C(=O)N2CCC3(CC2)C(=O)N(CC(=O)N2CCC(CO)CC2)CN3c2ccccc2)cc1	4
CC(C)(C)OC(=O)NC1CCCN(C(=O)CN2CN(c3ccccc3)C3(CCN(C(=O)c4ccc(C5CCCCC5)cc4)CC3)C2=O)C1 (centres undefined)	4.4
CC1(C)CC(OC(=O)CN2CN(c3ccccc3)C3(CCN(C(=O)c4ccc(C(C)(C)C)cc4)CC3)C2=O)CC(C)(C)N1	1.3
CC(C)(C)c1ccc(C(=O)N2CCC3(CC2)C(=O)N(CC(=O)NCCCCO)CN3c2ccccc2)cc1	8.3
CC(C)(C)c1ccc(C(=O)N2CCC3(CC2)C(=O)N(CC(=O)N2CCCCC2CCO)CN3c2ccccc2)cc1 (centres undefined)	6.1
NC(=O)C1CCCN(C(=O)CN2CN(c3ccccc3)C3(CCN(C(=O)c4ccc(C5CCCCC5)cc4)CC3)C2=O)C1 (centres undefined)	3.1
CC(C)(C)OC(=O)NCC1CCCN(C(=O)CN2CN(c3ccccc3)C3(CCN(C(=O)c4ccc(C(C)(C)C)cc4)CC3)C2=O)C1 (centres undefined)	9.5
CC(C)(C)c1ccc(C(=O)N2CCC3(CC2)C(=O)N(CC(=O)N2CCN(S(C)(=O)=O)CC2)CN3c2ccccc2)cc1	19
CC(C)(C)c1ccc(C(=O)N2CCC3(CC2)C(=O)N(CC(=O)NCCCCNS(C)(=O)=O)CN3c2ccccc2)cc1	10.3
NCCCNC(=O)CN1CN(c2ccccc2)C2(CCN(C(=O)c3ccc(C4CCCCC4)cc3)CC2)C1=O	3.1
CC(C)(C)c1ccc(C(=O)N2CCC3(CC2)C(=O)N(CC(=O)N2CCCC(C(N)=O)C2)CN3c2ccccc2)cc1 (centres undefined)	16.9
CC1(C)CC(OC(=O)CN2CN(c3ccccc3)C3(CCN(C(=O)c4ccc(C5CCCCC5)cc4)CC3)C2=O)CC(C)(C)N1	0.6
CC(C)(C)c1ccc(C(=O)N2CCC3(CC2)C(=O)N(CC(=O)NCCC(=O)O)CN3c2ccccc2)cc1	23.6
CC(C)(C)c1ccc(C(=O)N2CCC3(CC2)C(=O)N(CC(=O)NCCCNS(C)(=O)=O)CN3c2ccccc2)cc1	10.4
CC(C)(C)c1ccc(C(=O)N2CCC3(CC2)C(=O)N(CC(=O)NCCCCCN)CN3c2ccccc2)cc1	7.7
